{"source": "BindingDB's records for doi:10.1016/s0960-894x(01)00331-6", "about": "(Dupont Pharmaceuticals, 2001)", "data": [{"target": "T1, Gag-Pol polyprotein [588-1027]/[588-1147] (Human immunodeficiency virus 1, UniProt P04585)", "T1 construct": "588-1027; 588-1147", "assay": "HIV-1 RT Assay", "conditions": "pH 8.2; 37 °C", "description": "The IC50 of reverse transcriptase is the concentration that inhibits 50% of recombinant HIV-1 RT RNA-directed DNA polymerase activity in vitro.", "units": {"IC50": "µM"}, "values": [{"smiles": "O=C1Nc2ccc(Cl)cc2[C@@](C#CC2CC2)(C(F)(F)F)[C@H]1NCc1ccccc1", "note": "[(3R,4R)-3-(benzylamino)-6-chloro-4-(2-cyclopropylethynyl)-4-(trifluoromethyl)-1,2,3,4-tetrahydroquinolin-2-one]", "IC50": "> 2"}, {"smiles": "CC(C)=CCO[C@H]1C(=O)Nc2ccc(Cl)cc2[C@@]1(C#CC1CC1)C(F)(F)F", "note": "[(3R,4R)-6-chloro-4-(2-cyclopropylethynyl)-3-[(3-methylbut-2-en-1-yl)oxy]-4-(trifluoromethyl)-1,2,3,4-tetrahydroquinolin-2-one]", "IC50": "> 2"}, {"smiles": "O=C1Nc2ccc(Cl)cc2[C@@](C#CC2CC2)(C(F)(F)F)[C@H]1O", "note": "[(3R,4R)-6-chloro-4-(2-cyclopropylethynyl)-3-hydroxy-4-(trifluoromethyl)-1,2,3,4-tetrahydroquinolin-2-one]", "IC50": "> 2"}, {"smiles": "CC(=O)N[C@H]1C(=O)Nc2ccc(Cl)cc2[C@@]1(C#CC1CC1)C(F)(F)F", "note": "[N-[(3R,4R)-6-chloro-4-(2-cyclopropylethynyl)-2-oxo-4-(trifluoromethyl)-1,2,3,4-tetrahydroquinolin-3-yl]acetamide]", "IC50": "> 2"}, {"smiles": "COC(=O)N[C@H]1C(=O)Nc2ccc(Cl)cc2[C@@]1(C#CC1CC1)C(F)(F)F", "note": "[methyl N-[(3R,4R)-6-chloro-4-(2-cyclopropylethynyl)-2-oxo-4-(trifluoromethyl)-1,2,3,4-tetrahydroquinolin-3-yl]carbamate]", "IC50": "> 2"}]}]}
